Patent US9889146B2, “Benzoxaborole compounds and uses thereof” (priority 2012, dated 2018)
≈ marks a conversion by molar mass, not a printed value. Read-outs that look alike come from different tables or passages of the source.

What was measured:
Assay type in all cases: cell-based
[1] = system: E. coli (WT); assay: microbe, parasite or virus in culture; conditions: Escherichia coli, E. coli (WT)
[2] = system: Klebsiella spp. (ESBL); assay: microbe, parasite or virus in culture; conditions: Klebsiella
[3] = system: Klebsiella spp. (KPC); assay: microbe, parasite or virus in culture; conditions: Klebsiella
[4] = system: Enterobacter aerogenes (AmpC); assay: microbe, parasite or virus in culture; conditions: Klebsiella aerogenes
[5] = system: Enterobacter cloacae (AmpC); assay: microbe, parasite or virus in culture; conditions: Enterobacter cloacae
[6] = system: Proteus mirabilis (WT); assay: microbe, parasite or virus in culture; conditions: Proteus mirabilis (WT)
[7] = system: Proteus vulgaris (WT); assay: microbe, parasite or virus in culture; conditions: Proteus vulgaris (WT)
[8] = system: S. marcescens (AmpC); assay: microbe, parasite or virus in culture; conditions: Serratia marcescens
[9] = system: E. coli isolates from subject E. coli 1; assay: MIC in M9 minimal media of clinical isolates, subject E. coli 1; conditions: Escherichia coli, read-out: MIC in M9 Minimal Media
Procedure: The E. coli and P. mirabilis strains were cultured on Trypticase Soy Agar/5% blood plates (Becton Dickinson BBL), in cation adjusted Mueller-Hinton II Broth, or in M9 minimal salts (Becton Dickinson) broth containing 0.4% glucose and 200 uM MgSO4. L-Norvaline (Sigma-Aldrich) was prepared at a concentration of 6.4 mg/ml in […], in a final volume of approx 0.5 ml, and stored at −20° C. until required.
(§1) Minimum inhibitory concentrations (MICs) were determined using the CLSI (Clinical and Laboratory Standards Institute, formerly NCCLS) recommended broth microdilution methodology [NCCLS, 2003] using defined media.
Throughout this study E. coli and P. mirabilis strains were cultured on Trypticase Soy Agar/5% blood plates, on M9 salts/1.2% Bacto Agar plates, in Cation Adjusted Mueller-Hinton II Broth (CAMHB), or in M9 Minimal Salt Broth containing 0.4% glucose and 200 μM MgSO4. GSK2251052 and norvaline were prepared at a concentration of 6.4 mg/mL (free base) in 100% DMSO and 100% water respectively, aliquoted in 0.5 mL individual stocks, and stored at −20° C. until required.
Minimum inhibitory concentrations (MICs) were determined for each organism using the CLSI (Clinical and Laboratory Standards Institute) recommended broth microdilution methodology [CLSI, 2009].
Strains tested are detailed in Table 15. MICs for norvaline and GSK2251052 could only be determined for E. coli isolates from subject E. coli 1 (Table 16) as M9 Minimal Media could not sustain growth of E. coli isolates from subject E. coli 2 (isolates 2a-2o) or P. mirabilis isolates (isolates 3a-3c) from subject E. coli 3. […] This phenotype is consistent with a mutation in the editing site of LeuRS, which could also be responsible for the concomitant decrease in susceptibility to GSK2251052 observed in isolates from Days 2, 3 and 4 (Table 16).

[10] = system: E. coli clinical isolates from subject E. coli 2; assay: GSK2251052 MIC of clinical isolates, subject E. coli 2; conditions: for MIC: Escherichia coli, read-out: GSK2251052 MIC GSK results
Procedure: as §1
Almost all clinical isolates were determined to contain T247I in addition to a second mutation in editing domains 1 or 2. The second mutations include Asp251Asn, Ala323 Val, Arg344Cys/His and Asp345Ala. On Day 11 and at Follow Up a double mutant (R344H; D345A) was also isolated (see Table 14). For these clinical isolates, five independent colonies were characterized from day 6 to late follow-up, and leuS and promoter regions were sequenced from all isolates.

[11] = GSK2251052 breakpoint, read-out: susceptibility category of MIC90
[12] = read-out: susceptibility category of MIC90

NC[C@H]1OB(O)c2c(OCCCO)cccc21 [GSK2251052, (S)-3-aminomethyl-7-(3-hydroxy-propoxy)-3h-benzo[c][1,2]oxaborol-1-ol]
MIC90 ([1]; 214 isolates, read-out: MIC90): 1 µg/mL (≈ 4.22 µM)
MIC90 [1, 11]: < 4 µg/mL
MIC90 [2]: 1 µg/mL (≈ 4.22 µM)
MIC90 [2, 12]: < 4 µg/mL
MIC90 [3]: 2 µg/mL (≈ 8.44 µM)
MIC90 [3, 12]: < 4 µg/mL
MIC90 [4]: 1 µg/mL (≈ 4.22 µM)
MIC90 [4, 12]: < 4 µg/mL
MIC90 [5]: 0.5 µg/mL (≈ 2.11 µM)
MIC90 [5, 12]: < 4 µg/mL
MIC90 ([6]; 235 isolates, read-out: MIC90): 1 µg/mL (≈ 4.22 µM)
susceptibility category of MIC90 [6, 11]: < 4 µg/mL
MIC90 ([7]; 41 isolates, read-out: MIC90): 1 µg/mL (≈ 4.22 µM)
susceptibility category of MIC90 [7, 11]: < 4 µg/mL
MIC90 [8]: 1 µg/mL (≈ 4.22 µM)
MIC90 [8, 12]: < 4 µg/mL
MIC ([9]; 24 h, Isolate 1a, Blood, Day 1): 1 µg/mL (≈ 4.22 µM)
MIC ([9]; 24 h, Isolate 1b, Urine, Day 1): 1 µg/mL (≈ 4.22 µM)
MIC ([9]; 48 h, Isolate 1c, Blood, Day 2): 32 µg/mL (≈ 135 µM)
MIC ([9]; 96 h, Isolate 1e, Blood, Day 4): 32 µg/mL (≈ 135 µM)
MIC ([9]; Isolate 1d, Blood, Day 3): 32 µg/mL (≈ 135 µM)
MIC ([10]; 24 h, subject E. Coli 2, day 1, no LeuRS change): 0.25 µg/mL
MIC ([10]; 48 h): 512 µg/mL
MIC ([10]; 72 h): 512 µg/mL
MIC ([10]; 96 h): 512 µg/mL
MIC ([10]; 120 h): 512 µg/mL
MIC ([10]; 144 h): 1020 µg/mL
MIC ([10]; 168 h): 1020 µg/mL
MIC ([10]; 192 h): 1020 µg/mL
MIC ([10]; 216 h): 1020 µg/mL
MIC ([10]; 240 h): 1020 µg/mL
MIC ([10]; 264 h): 1020 µg/mL
MIC ([10]; 288 h): 1020 µg/mL
MIC ([10]; 312 h): 1020 µg/mL
MIC [10]: 1020 µg/mL
GSK2251052 MIC GSK results ([10]; subject E. Coli 2, Follow-up, 5x R344H, D345A): 1024 µg/mL
GSK2251052 MIC GSK results ([10]; subject E. Coli 2, day 9, 4x T247I, D251N): 1024 µg/mL
GSK2251052 MIC GSK results ([10]; subject E. Coli 2, day 10, 3x T247I, A323V): 1024 µg/mL
GSK2251052 MIC GSK results ([10]; subject E. Coli 2, day 11, 4x R344H, D345A): 1024 µg/mL
GSK2251052 MIC GSK results ([10]; subject E. Coli 2, day 12, 4x T247I, A323V): 1024 µg/mL
